# Measured values from publication PMC7699745, “The Search for New Anticonvulsants in a Group of (2,5-Dioxopyrrolidin-1-yl)(phenyl)Acetamides with Hybrid Structure—Synthesis and In Vivo/In Vitro Studies” (International Journal of Molecular Sciences, 2020).
# Read-outs that look alike come from different tables or passages of the source.
# Columns and labels:
# [1] = biological target: T1, Cav2.2 channel (Rattus norvegicus, UniProt Q02294); assay: Radioligand binding, Cav2.2 channel; design: dose or concentration left out as unconfirmed; settings: rat cerebral cortex; read-out: % Inhibition of Control Specific Binding, Cav2.2 Channel (Antagonist Radioligand)
# T1 construct: tissue Eurofins (Poitiers, France), contract assay; host or cells: rat cerebral cortex (own knowledge of the vendor's assay)
# Protocol: (§1) Taking into consideration the structural similarities of molecules described in the current manuscript with their chemical prototypes AS-1 and DK-1, the binding studies toward aforementioned molecular targets were performed commercially for several active substances from each subseries (3, 4, 21, 24, 25, 27, 29, and 30). Furthermore, we also tested two other and well-known targets for AEDs, namely, the Cav2.2 (N-type) calcium channel and gamma-aminobutyric acid (GABA)-A receptor. With the aim of excluding potentially dangerous proarrhythmic properties for each compound, their interaction with the potassium (hERG) channel was also tested.
# (§2) Binding studies were carried out commercially in Eurofines Laboratories (Poitiers, France). The functional assays were performed in Eurofins Panlabs Discovery Services Taiwan, Ltd. (New Taipei City, Taiwan). All procedures are described elsewhere (for details, see Table S4 in Supplementary Materials).
# (§3) Binding studies were carried out commercially in Eurofines Laboratories (Poitiers, France). The
# (§4) functional assays were performed in Eurofins Panlabs Discovery Services Taiwan, Ltd. (New Taipei
# (§5) City, Taiwan). All procedures are described elsewhere (Table S4).
# (§6) Table S4. In vitro binding and functional assays.
# (§7) GABA-A receptor (α1,β2,γ2)
# (§8) Potassium channel (hERG) 14
# (§9) Cav1.2 (h) calcium ion channel cell based antagonist calcium flux assay 16,17
# [2] = system: motor coordination of mice; assay: Rotarod test for acute neurological toxicity; settings: for Rotarod test, number of mice / number of mice tested: i.p., 100 mg/kg, 0.5 h
# [3] = Rotarod test for acute neurological toxicity; settings: mouse, in vivo, ip
# [4] = system: capsaicin-induced nociceptive response, mice; assay: Capsaicin-induced pain model; format: in vivo
# Description: Capsaicin activates C polymodal fibers and enhances their firing, which contributes to subsequent hyperalgesia. The molecular mechanism of action of capsaicin is the activation of the nonselective cation channel, transient receptor potential vanilloid-1 (TRPV1), which is localized on nociceptive free nerve endings. That induces the release of proinflammatory neuropeptides such as calcitonin gene-related peptide (CGRP), vasoactive intestinal peptide (VIP), and substance P (SP). The phenomenon of the induction of tissue inflammation by the peripheral nervous system is called neurogenic inflammation, and it is involved in the development of inflammatory and neuropathic pain. AEDs such as gabapentin, topiramate, or lamotrigine decrease capsaicin-induced nocifensive behavior [25].
# The experimental groups consisted of 6–12 adult male Albino Swiss mice (CD-1, 18–25 g). Each animal was tested only once. […]
# The experimental in vivo procedures were previously reported for the formalin test; compounds 4 and 30 were tested in three doses—40, 80, 120 mg/kg (4), and 20, 40, 80 mg/kg (30). […] The in vivo procedure for the model of capsaicin-induced nociception was previously reported; the animals were pretreated with vehicle (10 mL/kg, negative control) and the dose–response of investigated compounds was evaluated at 40, 80, 120 mg/kg (4), and 20, 40, 80 mg/kg (30). […]
# [5] = biological target: T2, Cav1.2 channel (Rattus norvegicus, UniProt P22002); assay: Radioligand binding, Cav1.2 channel; design: inhibition: dose or concentration left out as unconfirmed; settings: for inhibition: rat cerebral cortex, read-out: % Inhibition of Control Specific Binding, Cav1.2 Channel (Antagonist Radioligand)
# T2 construct: tissue Eurofins (Poitiers, France), contract assay; host or cells: rat cerebral cortex (own knowledge of the vendor's assay)
# Protocol: as §1, §2, §3, §4, §5, §6, §7, §8, §9
# [6] = system: Na+ channel (site 2); assay: Radioligand binding, Na+ channel (site 2); settings: 10 µM; rat cerebral cortex
# Protocol: as §1, §2, §3, §4, §5
# Table S4. In vitro binding and functional assays. […]
# [7] = biological target: T3, Potassium channel (hERG) (Homo sapiens, UniProt Q12809); assay: Binding, potassium channel (hERG); settings: 100 µM; human recombinant (HEK-293 cells)
# T3 construct: Eurofins (Poitiers, France), contract assay
# Protocol: as §1, §2, §3, §4, §5, §6, §7, §8, §9
# [8] = system: MES seizures, mice; assay: Maximal electroshock (MES) seizure test; format: in vivo; settings: Mus musculus, ip; for responders at 100 mg/kg: 0.5 h, i.p.; for ED50: at TPE (0.5 h; LTG 1.0 h), 95% confidence intervals in parentheses
# [9] = Parallel artificial membrane permeability assay (PAMPA)
# Protocol: Passive diffusion was tested in the parallel artificial membrane permeability assay (PAMPA) and expressed as the permeability coefficient (Pe). A highly permeable compound, caffeine (CFN), and a poorly permeable compound, norfloxacin (NFX), were used as the references.
# Precoated PAMPA Plate System Gentest™ was provided by Corning, (Tewksbury, MA, USA).
# [10] = biological target: CYP2C9 (Homo sapiens, UniProt P11712); assay: Luminescent CYP2C9 P450-Glo assay; settings: 10 and 25 µM
# [11] = system: 6 Hz (32 mA) seizures, mice; assay: Psychomotor 6 Hz (32 mA) seizure model; format: in vivo; settings: Mus musculus, ip; for responders at 100 mg/kg: 0.5 h, read-out: 6 Hz (32 mA) test, number of mice protected / number of mice tested (converted)
# [12] = read-out: MES test, number of mice protected / number of mice tested (converted)
# T2 sequence (P22002 whole entry): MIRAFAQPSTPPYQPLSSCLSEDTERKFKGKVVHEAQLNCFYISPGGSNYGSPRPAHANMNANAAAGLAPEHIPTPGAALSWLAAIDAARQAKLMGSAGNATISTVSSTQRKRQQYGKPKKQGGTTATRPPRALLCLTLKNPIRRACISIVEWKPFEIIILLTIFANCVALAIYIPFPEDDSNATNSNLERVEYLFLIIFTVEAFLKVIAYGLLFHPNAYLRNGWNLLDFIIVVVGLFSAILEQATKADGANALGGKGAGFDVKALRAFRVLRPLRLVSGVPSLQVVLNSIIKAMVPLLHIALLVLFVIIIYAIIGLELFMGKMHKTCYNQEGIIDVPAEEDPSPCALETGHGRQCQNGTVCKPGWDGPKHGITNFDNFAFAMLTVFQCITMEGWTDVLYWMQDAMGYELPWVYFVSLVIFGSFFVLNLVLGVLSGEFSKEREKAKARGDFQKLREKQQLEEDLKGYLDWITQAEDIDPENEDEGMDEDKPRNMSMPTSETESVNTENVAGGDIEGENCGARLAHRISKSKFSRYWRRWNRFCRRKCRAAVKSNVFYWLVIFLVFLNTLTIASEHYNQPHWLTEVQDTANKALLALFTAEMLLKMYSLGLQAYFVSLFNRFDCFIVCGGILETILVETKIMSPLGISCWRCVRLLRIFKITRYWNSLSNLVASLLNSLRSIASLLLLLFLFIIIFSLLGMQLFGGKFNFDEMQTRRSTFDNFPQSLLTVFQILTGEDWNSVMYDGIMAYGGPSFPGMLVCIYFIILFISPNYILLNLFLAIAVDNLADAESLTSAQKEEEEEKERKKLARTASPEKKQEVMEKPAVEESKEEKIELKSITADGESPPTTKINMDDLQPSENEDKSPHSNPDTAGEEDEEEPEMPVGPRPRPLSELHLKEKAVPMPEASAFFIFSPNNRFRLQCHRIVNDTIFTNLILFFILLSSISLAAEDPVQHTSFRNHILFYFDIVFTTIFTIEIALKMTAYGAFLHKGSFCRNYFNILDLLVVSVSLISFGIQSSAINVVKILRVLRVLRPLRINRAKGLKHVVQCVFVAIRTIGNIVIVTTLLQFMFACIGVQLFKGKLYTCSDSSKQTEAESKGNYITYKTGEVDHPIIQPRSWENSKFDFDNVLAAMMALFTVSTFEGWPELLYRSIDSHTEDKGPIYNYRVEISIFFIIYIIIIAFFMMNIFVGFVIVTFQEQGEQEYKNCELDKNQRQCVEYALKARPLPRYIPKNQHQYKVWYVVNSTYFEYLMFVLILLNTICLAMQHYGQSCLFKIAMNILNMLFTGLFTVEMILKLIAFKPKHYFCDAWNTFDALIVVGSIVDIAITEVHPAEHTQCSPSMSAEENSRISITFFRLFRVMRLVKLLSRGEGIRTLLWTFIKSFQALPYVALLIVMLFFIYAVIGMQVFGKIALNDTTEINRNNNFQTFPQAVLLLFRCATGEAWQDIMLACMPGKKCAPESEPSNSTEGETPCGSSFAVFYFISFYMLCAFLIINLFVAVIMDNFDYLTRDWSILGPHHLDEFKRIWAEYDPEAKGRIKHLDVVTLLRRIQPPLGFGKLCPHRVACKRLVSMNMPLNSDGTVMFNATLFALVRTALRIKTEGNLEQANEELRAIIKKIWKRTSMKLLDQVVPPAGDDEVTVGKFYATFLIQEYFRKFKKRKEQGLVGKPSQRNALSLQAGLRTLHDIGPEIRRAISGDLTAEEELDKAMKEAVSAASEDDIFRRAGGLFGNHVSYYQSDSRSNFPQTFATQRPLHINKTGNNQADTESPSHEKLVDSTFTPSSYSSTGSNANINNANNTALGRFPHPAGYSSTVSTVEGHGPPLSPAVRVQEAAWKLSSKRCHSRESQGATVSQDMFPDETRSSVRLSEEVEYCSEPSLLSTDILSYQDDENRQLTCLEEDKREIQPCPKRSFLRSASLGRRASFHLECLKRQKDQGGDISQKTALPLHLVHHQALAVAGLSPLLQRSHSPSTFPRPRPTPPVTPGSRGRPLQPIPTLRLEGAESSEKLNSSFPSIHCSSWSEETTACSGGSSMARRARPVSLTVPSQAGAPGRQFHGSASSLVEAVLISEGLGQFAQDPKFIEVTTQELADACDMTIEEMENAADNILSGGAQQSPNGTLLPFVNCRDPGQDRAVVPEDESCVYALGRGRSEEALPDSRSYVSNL
# T2 sequence (P54287 whole entry partner): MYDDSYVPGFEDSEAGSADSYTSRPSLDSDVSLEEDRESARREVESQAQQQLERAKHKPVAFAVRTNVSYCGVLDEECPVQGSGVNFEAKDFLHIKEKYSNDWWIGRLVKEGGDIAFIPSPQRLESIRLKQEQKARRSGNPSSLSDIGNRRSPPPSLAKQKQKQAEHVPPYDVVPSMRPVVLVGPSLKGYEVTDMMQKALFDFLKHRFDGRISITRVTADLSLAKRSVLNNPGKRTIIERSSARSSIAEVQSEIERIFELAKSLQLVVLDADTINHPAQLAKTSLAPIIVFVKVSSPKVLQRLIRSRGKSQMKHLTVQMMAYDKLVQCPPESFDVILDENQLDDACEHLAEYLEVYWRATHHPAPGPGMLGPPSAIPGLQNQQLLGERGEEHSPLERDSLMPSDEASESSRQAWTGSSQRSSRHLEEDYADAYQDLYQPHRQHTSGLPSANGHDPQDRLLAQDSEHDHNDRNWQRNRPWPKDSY
# T2 sequence (P54290 25-944 partner limits assumed): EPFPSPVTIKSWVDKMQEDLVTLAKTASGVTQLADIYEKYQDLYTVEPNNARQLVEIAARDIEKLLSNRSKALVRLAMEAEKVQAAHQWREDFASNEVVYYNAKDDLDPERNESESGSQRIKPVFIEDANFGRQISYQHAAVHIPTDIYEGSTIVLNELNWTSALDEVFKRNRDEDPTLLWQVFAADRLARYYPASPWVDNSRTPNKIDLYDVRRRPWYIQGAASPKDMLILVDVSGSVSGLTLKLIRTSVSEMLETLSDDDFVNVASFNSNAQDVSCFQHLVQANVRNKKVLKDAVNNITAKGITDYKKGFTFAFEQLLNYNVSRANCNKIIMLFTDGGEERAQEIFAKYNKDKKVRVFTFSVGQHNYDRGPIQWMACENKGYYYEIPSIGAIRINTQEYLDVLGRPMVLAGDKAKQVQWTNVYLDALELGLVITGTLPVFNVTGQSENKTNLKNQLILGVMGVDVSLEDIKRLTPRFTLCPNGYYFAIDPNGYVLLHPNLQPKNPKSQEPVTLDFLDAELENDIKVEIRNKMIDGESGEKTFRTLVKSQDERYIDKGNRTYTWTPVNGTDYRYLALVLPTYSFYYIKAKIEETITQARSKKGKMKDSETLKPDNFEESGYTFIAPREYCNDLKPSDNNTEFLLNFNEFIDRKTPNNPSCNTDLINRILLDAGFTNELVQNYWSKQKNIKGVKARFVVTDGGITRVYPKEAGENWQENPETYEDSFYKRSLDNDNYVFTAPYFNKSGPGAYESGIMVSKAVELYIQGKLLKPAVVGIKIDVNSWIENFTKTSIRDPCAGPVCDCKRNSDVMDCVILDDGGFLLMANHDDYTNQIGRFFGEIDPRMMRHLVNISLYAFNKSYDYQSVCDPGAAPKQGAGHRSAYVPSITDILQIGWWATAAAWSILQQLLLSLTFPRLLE
# T2 sequence (P54290 945-1091 partner limits assumed): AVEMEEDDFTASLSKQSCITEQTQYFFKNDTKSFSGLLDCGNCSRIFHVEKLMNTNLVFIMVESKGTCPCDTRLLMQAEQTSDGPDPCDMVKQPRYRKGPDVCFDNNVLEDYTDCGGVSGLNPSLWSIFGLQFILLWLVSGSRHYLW
# T3 sequence (Q12809 whole entry): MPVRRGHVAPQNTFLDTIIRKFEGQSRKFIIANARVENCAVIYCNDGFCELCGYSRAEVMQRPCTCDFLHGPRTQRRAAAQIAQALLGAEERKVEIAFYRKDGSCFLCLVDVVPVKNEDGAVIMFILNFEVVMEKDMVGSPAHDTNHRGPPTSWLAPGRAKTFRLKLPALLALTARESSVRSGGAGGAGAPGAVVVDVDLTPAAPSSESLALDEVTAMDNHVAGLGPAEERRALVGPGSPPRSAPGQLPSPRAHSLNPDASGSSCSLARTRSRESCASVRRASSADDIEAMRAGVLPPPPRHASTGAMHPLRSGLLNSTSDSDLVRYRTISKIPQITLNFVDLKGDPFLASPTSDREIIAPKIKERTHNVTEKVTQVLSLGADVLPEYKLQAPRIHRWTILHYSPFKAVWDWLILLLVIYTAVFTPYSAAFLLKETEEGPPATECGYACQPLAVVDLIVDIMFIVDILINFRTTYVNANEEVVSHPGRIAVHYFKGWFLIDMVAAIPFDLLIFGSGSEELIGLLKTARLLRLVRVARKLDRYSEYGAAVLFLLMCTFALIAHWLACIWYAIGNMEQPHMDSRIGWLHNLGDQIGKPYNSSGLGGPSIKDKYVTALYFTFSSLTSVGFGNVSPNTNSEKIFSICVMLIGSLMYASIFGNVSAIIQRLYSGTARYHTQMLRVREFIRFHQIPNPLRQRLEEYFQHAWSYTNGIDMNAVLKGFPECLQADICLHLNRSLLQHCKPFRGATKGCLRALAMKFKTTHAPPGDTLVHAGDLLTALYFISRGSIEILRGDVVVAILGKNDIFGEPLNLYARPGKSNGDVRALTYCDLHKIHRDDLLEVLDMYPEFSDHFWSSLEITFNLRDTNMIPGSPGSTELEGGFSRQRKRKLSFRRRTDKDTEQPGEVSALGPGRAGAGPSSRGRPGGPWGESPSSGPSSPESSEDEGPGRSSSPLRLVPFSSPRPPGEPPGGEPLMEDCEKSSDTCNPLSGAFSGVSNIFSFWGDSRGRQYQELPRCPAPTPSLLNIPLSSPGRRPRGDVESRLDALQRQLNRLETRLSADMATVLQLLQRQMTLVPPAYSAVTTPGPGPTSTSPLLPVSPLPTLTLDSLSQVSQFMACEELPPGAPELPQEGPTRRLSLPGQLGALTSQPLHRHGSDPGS
Compound,inhibition [1],"Rotarod test, number of mice / number of mice tested [2]",TD50 at 0.5 h [3],"ED50 ([4]; Mus musculus, ip, i.p. 30 min before test)",binding to voltage-gated calcium channels Cav1.2 ([5]; concentration of 10 µM),inhibition [5],"% Inhibition of Control Specific Binding, Na+ Channel (Site 2) (Antagonist Radioligand) [6]","% Inhibition of Control Specific Binding, Potassium Channel (hERG) [7]","responders at 100 mg/kg ([8]; groups of four, read-out: protection in the MES test)","responders at 100 mg/kg [8, 12]",ED50 [8],Papp [9],effect on CYP2C9 activity [10],melting point,responders at 100 mg/kg [11],"ED50 ([11]; at TPE (0.5 h; LTG 1.0 h), 95% confidence intervals in parentheses)",impairment of motor coordination of mice ([2]; doses as high as 300 mg/kg),"attenuation of nociceptive response in capsaicin-induced pain ([4]; i.p., 120 mg/kg)"
"O=C(NCCc1cccc(OC(F)(F)F)c1)C(c1ccccc1)N1C(=O)CCC1=O (stereo not drawn) [Compound 30, 2-(2,5-Dioxopyrrolidin-1-yl)-2-phenyl-N-(3-(trifluoromethoxy)phenethyl)acetamide]",4%,0/4,162 mg/kg,35.3 mg/kg,moderate binding,47.6%,15.8%,1.7%,100%,100%,45.6 mg/kg,13.2 ± 1.5 ×10⁻⁶ cm/s,blocked its activity,113.3 to 114.2 °C,75%,39.5 mg/kg,,
"O=C(Nc1ccccc1F)C(c1ccccc1)N1C(=O)CCC1=O (stereo not drawn) [Compound 4, 2-(2,5-Dioxopyrrolidin-1-yl)-N-(2-fluorophenyl)-2-phenylacetamide]",1.1%,0/4,> 300 mg/kg,,,5%,23.5%,2.3%,,100%,73.2 mg/kg,11.2 ± 0.7 ×10⁻⁶ cm/s,blocked its activity,106.6 to 107.1 °C,25%,,did not impair motor coordination,37.9%
